Columns and labels:
KB = test: Antiproliferative activity against human KB cells assessed as inhibition of cell growth under hypoxia condition; format: functional, cell-based
[1] = Ratio of IC50 for antiproliferative activity against human HL-60 cells assessed as inhibition of cell growth under normoxia condition to IC50 for antiproliferative activity against human HL-60 cells assessed as inhibition of cell growth under hypoxia condition; format: functional
[2] = Ratio of IC50 for antiproliferative activity against human Bel-7402 cells assessed as inhibition of cell growth under normoxia condition to IC50 for antiproliferative activity against human Bel-7402 cells assessed as inhibition of cell growth under hypoxia condition; format: functional
[3] = Ratio of IC50 for antiproliferative activity against human Eca-109 cells assessed as inhibition of cell growth under normoxia condition to IC50 for antiproliferative activity against human Eca-109 cells assessed as inhibition of cell growth under hypoxia condition; format: functional
[4] = Ratio of IC50 for antiproliferative activity against human MCF7 cells assessed as inhibition of cell growth under normoxia condition to IC50 for antiproliferative activity against human MCF7 cells assessed as inhibition of cell growth under hypoxia condition; format: functional
[5] = Ratio of IC50 for antiproliferative activity against human PC-3 cells assessed as inhibition of cell growth under normoxia condition to IC50 for antiproliferative activity against human PC-3 cells assessed as inhibition of cell growth under hypoxia condition; format: functional
MCF7 [6] = test: Antiproliferative activity against human MCF7 cells assessed as inhibition of cell growth under hypoxic condition by MTT assay; format: functional, cell-based
HCT-116 = test: Antiproliferative activity against human HCT-116 cells assessed as inhibition of cell growth under hypoxic condition by MTT assay; format: functional, cell-based
NCI-H460 = test: Antiproliferative activity against human NCI-H460 cells assessed as inhibition of cell growth under hypoxic condition by MTT assay; format: functional, cell-based
MCF7 [7] = test: Antiproliferative activity against human MCF7 cells assessed as inhibition of cell growth measured after 72 hrs by fluorescence based assay; format: functional; details: MCF7, 72 h
K562 = test: Antiproliferative activity against human K562 cells assessed as inhibition of cell growth measured after 72 hrs by fluorescence based assay; format: functional; details: K562, 72 h

## CCCOCNc1n[n+]([O-])c2ccccc2[n+]1[O-]
KB
  IC50: 3.74 µM

## CCCCOCNc1n[n+]([O-])c2ccccc2[n+]1[O-]
KB
  IC50: 2.32 µM

## CCCCCOCNc1n[n+]([O-])c2ccccc2[n+]1[O-]
KB
  IC50: 2.9 µM

## CC(C)CCOCNc1n[n+]([O-])c2ccccc2[n+]1[O-]
KB
  IC50: 2.11 µM

## [O-][n+]1nc(NCOC2CCCCC2)[n+]([O-])c2ccccc21
KB
  IC50: 1.2 µM

## CCCCCCCOCNc1n[n+]([O-])c2ccccc2[n+]1[O-]
KB
  IC50: 3.49 µM

## [O-][n+]1nc(NCOCc2ccccc2)[n+]([O-])c2ccccc21
KB
  IC50: 4.14 µM

## [O-][n+]1nc(NCOCc2ccc(Cl)cc2)[n+]([O-])c2ccccc21
KB
  IC50: 2.19 µM

## CC(OCNc1n[n+]([O-])c2ccccc2[n+]1[O-])c1ccccc1 (stereo not drawn)
KB
  IC50: 2.81 µM

## O=[N+]([O-])c1cccc(COCNc2n[n+]([O-])c3ccccc3[n+]2[O-])c1
KB
  IC50: 3.44 µM

## CCCOCNc1n[n+]([O-])c2cc(OC)ccc2[n+]1[O-]
KB
  IC50: 2.54 µM

## CCCCCOCNc1n[n+]([O-])c2cc(OC)ccc2[n+]1[O-]
KB
  IC50: 2.51 µM

## COc1ccc2c(c1)[n+]([O-])nc(NCOCc1ccccc1)[n+]2[O-]
KB
  IC50: 4.47 µM

## [O-][n+]1nc(NCc2ccccc2)[n+]([O-])c2ccccc21
[1]
  Ratio IC50: 4.2
[2]
  Ratio IC50: 2.8
[3]
  Ratio IC50: 5.1
[4]
  Ratio IC50: 1.9
[5]
  Ratio IC50: 2.3

## CCNc1n[n+]([O-])c2ccccc2[n+]1[O-]
[1]
  Ratio IC50: 1.6
[2]
  Ratio IC50: 2.2
[3]
  Ratio IC50: 5.4
[4]
  Ratio IC50: 2.1
[5]
  Ratio IC50: 4.4

## CCNc1n[n+]([O-])c2cc(Cl)ccc2[n+]1[O-]
[1]
  Ratio IC50: 5.1
[2]
  Ratio IC50: 2.4
[3]
  Ratio IC50: 2.7
[4]
  Ratio IC50: 3.84

## CCNc1n[n+]([O-])c2cc(OC)ccc2[n+]1[O-]
[2]
  Ratio IC50: 1.07
[3]
  Ratio IC50: 1.12
[5]
  Ratio IC50: 1.2

## [O-][n+]1nc(Nc2ccccc2)[n+]([O-])c2ccccc21
[1]
  Ratio IC50: 2.5
[2]
  Ratio IC50: 2
[3]
  Ratio IC50: 4.1
[4]
  Ratio IC50: 2.1
[5]
  Ratio IC50: 2.3

## [O-][n+]1nc(NC2CCCCC2)[n+]([O-])c2ccccc21
[1]
  Ratio IC50: 4.1
[2]
  Ratio IC50: 1.1
[3]
  Ratio IC50: 2.8
[4]
  Ratio IC50: 1.9
[5]
  Ratio IC50: 1.5

## O=C(NCCCCCNc1n[n+]([O-])c2ccccc2[n+]1[O-])C(F)(F)F
MCF7 [6]
  IC50: 11.7 µM
HCT-116
  IC50: 11.7 µM
NCI-H460
  IC50: 11.7 µM

## O=C(NCCCCNc1n[n+]([O-])c2ccccc2[n+]1[O-])C(F)(F)F
MCF7 [6]
  IC50: 11.7 µM
HCT-116
  IC50: 11.7 µM
NCI-H460
  IC50: 11.7 µM

## CCN(CC)c1nc(=O)n(-c2ccccc2)nc1-c1ccccc1O
MCF7 [7]
  IC50: 3.5 µM
K562
  IC50: 3.5 µM

## O=[N+]([O-])c1ccc2c(c1)[n+]([O-])nc(NC1CCCCC1)[n+]2[O-]
[2]
  Ratio IC50: 1.68
[3]
  Ratio IC50: 1.6
[5]
  Ratio IC50: 1.07

## NC(CCCCNc1nc(=O)n(-c2ccccc2)nc1-c1ccccc1O)C(=O)O (stereo not drawn)
MCF7 [7]
  IC50: 3.5 µM
K562
  IC50: 3.5 µM

## Nc1nc(=O)n(-c2ccccc2)nc1-c1ccccc1O
MCF7 [7]
  IC50: 3.5 µM
K562
  IC50: 3.5 µM

## NCCCCNc1n[n+]([O-])c2ccccc2[n+]1[O-]
MCF7 [6]
  IC50: 11.7 µM
HCT-116
  IC50: 11.7 µM
NCI-H460
  IC50: 11.7 µM

## NCCCCNc1nc(=O)n(-c2ccccc2)nc1-c1ccccc1O
MCF7 [7]
  IC50: 3.5 µM
K562
  IC50: 3.5 µM

## O=C(NCCCNc1n[n+]([O-])c2ccccc2[n+]1[O-])C(F)(F)F
MCF7 [6]
  IC50: 11.7 µM
HCT-116
  IC50: 11.7 µM
NCI-H460
  IC50: 11.7 µM

## [O-][n+]1nc(NCCNc2n[n+]([O-])c3ccccc3[n+]2[O-])nc2ccccc21
MCF7 [6]
  IC50: 11.7 µM
HCT-116
  IC50: 11.7 µM
NCI-H460
  IC50: 11.7 µM

## Cc1ccc2c(c1)[n+]([O-])nc(Nc1ccccc1)[n+]2[O-]
[1]
  Ratio IC50: 1.01
[2]
  Ratio IC50: 2.07
[3]
  Ratio IC50: 5.31
[4]
  Ratio IC50: 2.19
[5]
  Ratio IC50: 1.2

## O=c1nc(N2CCCCC2)c(-c2ccccc2O)nn1-c1ccccc1
MCF7 [7]
  IC50: 3.5 µM
K562
  IC50: 3.5 µM

From ChEMBL document CHEMBL5260813, “An overview on the recent developments of 1,2,4-triazine derivatives as anticancer compounds” (Eur J Med Chem, 2017)
